Test results as given in PubChem BioAssay (NCI).
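48-hour exposure; five concentrations; linearly interpolated endpoints. GI50: concentration for 50% inhibition of growth. TGI denotes the concentration required for complete inhibition of growth.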

Test system: MDA-MB-468 breast
Experiment: DTP human tumour cell line panel, 48 h

Row | Compound | GI50 | TGI
1 | Cc1cc(C)c(NC(=O)c2sc3nc4c(cc3c2N)C(=O)CCC4)c(C)c1 | 0.651 µM | 4.39 µM
2 | Cc1ccc(NC(=O)c2cccc(C(C)(C)C#N)c2)cc1Nc1ccc2ncn(C)c(=O)c2c1 | 15.8 µM | > 100 µM
3 | CCc1nc2cc(F)c(/C=C/C(=O)NO)cc2c(=O)n1CCc1ccccc1 | 0.217 µM | 0.761 µM
4 | COc1ccc(C(=O)c2cc(C)c(OC)c(C)c2)cc1OC(=O)CCl | 0.0894 µM | 75.2 µM
5 | COc1c(C(=O)/C=C/c2ccccc2)c(O)cc2occc12 | 6.77 µM | 21.4 µM
6 | C/C(=N\Nc1ccc(Cl)cn1)c1ccc2ccccc2n1 | 2.88 µM | > 100 µM
7 | COc1ccccc1CNCCCN1C(=O)c2ccc3c4c(ccc(c24)C1=O)C(=O)N(CCCNCCNCCCN)C3=O | 0.456 µM | 2.22 µM
8 | CC(C)c1ccc(-c2cc(-c3cn[nH]c3-c3ccccn3)ccn2)cc1 | 10.5 µM | 24.7 µM
9 | NS(=O)(=O)c1ccc(-c2ccc3c(NC(=O)C4CC4)n[nH]c3c2)cc1 | > 21.6 µM | > 25 µM
10 | O=S(=O)(c1ccc(NC(=S)NC23CC4CC(CC(C4)C2)C3)cc1)N1CCCCC1 | 2.27 µM | 6.84 µM
11 | COc1ccc(/C=C/c2c(C(=O)/C=C/c3ccccc3)c(C)nc3ccccc23)cc1 | 1.78 µM | 3.48 µM
12 | COc1ccc2[nH]c3c4[nH]c5ccc(OC)cc5c4c4c(c3c2c1)C(=O)NC4=O | > 25 µM | > 25 µM
13 | CC1=CC(=O)C=CC1=O | 1.57 µM | 3.21 µM
14 | COc1ccc(-c2[nH]c3ccc(OC)cc3c2/C=C(\C#N)S(=O)(=O)c2ccccc2)cc1 | 1.33 µM | 44 µM
15 | O=C(Nc1n[nH]c2cc(-c3ccccc3)ccc12)C1CC1 | 4 µM | > 25 µM
16 | CN1CCN(CCCNc2nc3ccc(Oc4ccc(NC(=O)Nc5cc(C(F)(F)F)ccc5F)cc4)cc3[nH]2)CC1 | 3.33 µM | 6.57 µM
17 | COc1cc(OC)c(C(=O)/C=C/c2cccc(C(F)(F)F)c2)c(OC)c1 | 0.755 µM | 2.01 µM
18 | CC1(C)C(=O)/C(=C\c2cccnc2)C[C@]2(C)[C@H]3CC[C@@H]4[C@H]5[C@H](C(=O)/C=C/c6cccnc6)CC[C@]5(C(=O)O)CC[C@@]4(C)[C@]3(C)CC[C@@H]12 | 2.14 µM | 5.7 µM
19 | COc1ccc(C(=O)c2cc(OC)c(OC)c(OC)c2)cc1/C=C/C(=O)c1ccc(F)cc1 | 4.63 µM | 27.1 µM

Row | Compound | GI50 | TGI
20 | CCCC(CCC)NCC(O)c1cc(-c2ccc(C(F)(F)F)cc2)nc(C(F)(F)F)c1 (stereo unspecified) | 1.58 µM | 2.98 µM
21 | COc1cc2ncnc(-n3ncc4cc(NC(=O)Nc5ccccc5)ccc43)c2cc1OC | 1.18 µM | 3.35 µM
22 | Cc1cc(C(=O)Nc2ccc3cc(CN4CCOCC4)ccc3n2)c(C)n1-c1ccccc1 | 0.171 µM | 7.11 µM
23 | C=C1C(=O)O[C@H]2[C@H]1CC/C(COC(=O)NCCCCNC(=O)OC/C1=C/CC[C@@]3(C)O[C@H]3[C@H]3OC(=O)C(=C)[C@@H]3CC1)=C\CC[C@@]1(C)O[C@@H]21 | 0.426 µM | 2 µM
24 | CCCCC(CC)COC(=O)C[N+](C)(C)CCOC(c1ccccc1)c1ccccc1 (stereo unspecified) | 1.46 µM | 3.12 µM
25 | CCOC(=O)C1CCN(S(=O)(=O)/N=C2/NC(=O)NC2=C(Cl)Cl)CC1 | 0.387 µM | 2.08 µM
26 | O=C1/C(=C(/c2ccccc2)N2CCOCC2)Cc2ccccc21 | 0.501 µM | 1.9 µM
27 | CCNCCNc1cc(-c2ccc(C(F)(F)F)cc2)c(C#N)c2nc3ccccc3n12 | 0.688 µM | 2.14 µM
28 | COc1ccc(C(=O)c2cc(C)c(OC)c(C)c2)c(OC)c1O | 0.489 µM | > 100 µM
29 | CC/C=C\C[C@H](O)C/C=C1/C(=O)C=C[C@@H]1C/C=C\CCCC(=O)OC | 1.68 µM | 3.77 µM
30 | Cc1cc2ncnn2cc1Nc1ncc2c(n1)n(C1CCOCC1)c(=O)n2C | 4.37 µM | 44.8 µM
31 | COc1ccc(-c2nc3ccccn3c2/C=C/C(=O)c2cc(OC)c(OC)c(OC)c2)cc1OC | 2.28 µM | 5.71 µM
32 | COCC[C@H]1CCC/C=C/[C@@H]2C[C@H](O)C[C@H]2[C@H](O)/C=C/C(=O)O1 | 0.0245 µM | 0.0714 µM
33 | Nc1nc(Nc2cccnc2)sc1C(=O)c1ccccc1F | 1.37 µM | 4.04 µM
34 | NC(=O)c1cc(Cl)ccc1NC(=O)/C=C/c1ccccc1 | 1.1 µM | 11.5 µM
35 | CN1CCN(Cc2ccc(NC(=O)c3cncc(C#Cc4cnn5cccnc45)c3)cc2C(F)(F)F)CC1 | 8.35 µM | 22.8 µM
36 | COC(=O)Nc1nc2ccc(C3(c4ccc(F)cc4)OCCO3)cc2[nH]1 | 0.159 µM | 1.19 µM
37 | C=C(C)[C@@H]1CC[C@]2(CO)CC[C@]3(C)[C@H](CC[C@@H]4[C@@]5(C)C=C(C#N)C(=O)C(C)(C)[C@@H]5CC[C@]43C)[C@@H]12 | 1.3 µM | 3.85 µM
38 | C=C(C)[C@H]1Cc2c(ccc3c2O[C@@H]2COc4cc(OC)c(OC)cc4[C@@H]2C3=O)O1 | 0.0816 µM | > 100 µM
